Where a SMILES comes first, the peptide text is derived from it. Where no end group is shown, it is not given here.
Experiments:
[1] = test system: HUVECs; experiment: MTT cell viability, HUVECs; assay type: cell-based, human; conditions: 24 h
Procedure: (§1) Mouse melanoma B16F1 and B16F10 cells and human HCT116 colon cancer cells were obtained from American Type Culture Collection (Manassas, VA) and cultured in RPMI medium supplemented with 10% FBS, 1 mM sodium pyruvate, 10 mM 4-(2-hydroxyethyl)-1-piperazineethanesulfonic acid, and 100 U/ml penicillin-streptomycin in a humidified atmosphere of 5% CO2 at 37°C. Human umbilical vein endothelial cells (HUVECs) were maintained and cultured in M199 as described previously, and only passages 2-7 were used for all experiments. Human multiple myeloma IM-9 and RPMI 8226 cells were obtained from Korean Cell Line Bank (Seoul, Korea). The cells were cultured in RPMI-1640 medium in a humidified CO2 incubator. Cell viability or cytotoxicity was evaluated by 3-[4,5-cimethylthiazol-2-yl]-2,5-diphenyl tetrazolium bromide (MTT, Sigma-Aldrich) assay.
(§2) www.impactjournals.com/oncotarget/ Oncotarget, Supplementary Materials 2016
(§3) B. cells were treated the indicated concentration of RLYE for 24 h. Cell viability was determined by MTT assay. […]

[2] = test system: HCT116 cells; experiment: MTT cell viability, HCT116 cells; assay type: cell-based, human; conditions: up to 30 nM, 24 h
Procedure: as §1, §2, §3

[3] = half-life in blood; assay type: in vivo; conditions: unpublished data
[4] = half-life in culture medium; assay type: in vitro ADME; conditions: M199 culture medium with 10% heat-inactivated FBS; unpublished data
[5] = test system: endothelial cells; parameters: method as in PMID 15013002; conditions: cited from earlier work
[6] = test system: VEGFR-2; conditions: read-out: IC50 for VEGFR-2; endothelial cell culture conditions; cited from earlier work
[7] = test system: VEGF-A; conditions: cited from earlier work
Description: Therefore, the VEGF-A/VEGFR-2 system is widely considered a main target of the therapeutic treatment for tumor angiogenesis. Ligation of VEGFR-2 triggers strong proangiogenic signals including p38MAPK/ERK, Src/FAK, and Akt/eNOS through VEGFR-2 phosphorylation, which promote angiogenesis and VEGFR-2 internalization.

[8] = test system: HCT116 tumors; experiment: HCT116 human colon cancer xenograft in nude mice; assay type: in vivo, mouse; conditions: RLYE 0.5 mg/kg/day i.p., CPT-11 17 mg/kg every 5th day, alone or combined, n = 7 per group
Procedure: Figure 7 RLYE inhibits tumor growth and metastasis by suppressing tumor angiogenesis A. Representative tumors isolated from 29-days-old B16F1 tumor-bearing C57BL/6J mice injected i.p. with saline or RLYE (1 mg/kg) every day. B. Tumor weight on day 29 after injection of B16F1 cells (n = 10 mice per group). C. […] D. Representative images for metastatic nodules of the lungs isolated from C57BL/6J mice, which were injected i.v. with B16F10 melanoma cells and treated with saline or RLYE for 3 weeks. E. Quantification of the number of lung metastatic nodules. […] Representative tumors from 30-day-old HCT116 tumor-bearing mice. (G) Tumor burden was measured every 3 days (n = 8 mice per group). (H) Functional vascularization was quantified by measuring hemoglobin concentration in HCT116 tumor tissues (n = 5). […]
Figure 8 RLYE inhibits vascular leakage and enhances tumor chemosensitivity A. Endothelial cell permeability was determined by diffusion of [^14C]-sucrose through HUVEC monolayers treated with 20 ng/ml of VEGF alone or in combination with RLYE (n = 3). B. Phosphorylation of VE-cadherin was determined in cell lysates of HUVECs treated with 20 ng/ml of VEGF alone or in combination with RLYE. […] Immunostaining of VE-cadherin in endothelial monolayer was determined by confocal microscopy. […] Tumor vascular leakage was determined by the Evans blue method (E and F) or FITC-dextran image assay (G and H). […]

[9] = test system: HUVECs; experiment: FACS binding of FITC-conjugated RLYE to HUVECs; parameters: species or system human; conditions: FITC-conjugated RLYE 15 nM, n = 5
Procedure: (§4) Figure 5 RLYE binds to endothelial cells through binding to VEGFR-2 A and B. HUVECs were incubated with FITC-conjugated RLYE (RL, 15 nM) before or after treatment with VEGF-A (VE, 100 ng) for 30 min. Cells were analyzed by flow cytometry (A) and quantified (B). Data are the means ± SD (n = 5). **P < 0.01 versus RLYE alone. C and D. HUVEC lysates were incubated with biotinylated RLYE (Bio-RLYE, 0.15 or 1.5 nM), followed by precipitation with streptavidin-agarose beads. The red arrow indicates VEGFR-2 protein bands on a longer exposure film. The precipitates were separated by SDS-PAGE. VEGFR-2 or VEGFR-1 expression was assessed by Western blot analysis. E. HUVECs were treated with or without VEGF-A (10 ng/ml) for 30 min, followed by incubation with FITC-conjugated RLYE (100 ng/ml, green). Cells were incubated with a TRITC-conjugated CD31 antibody (1:100, red) or DAPI (blue). Confocal microscopy was performed for analyzing binding of RLYE on HUVECs. Scale bar, 10 μm.
HUVECs cultured for 24 h after plating in 60 mm-culture dishes. Cells from subconfluent cultures were gently detached from wells with PBS containing 5 mM EDTA, washed three times with PBS, and resuspended in PBS containing 2% FBS/0.1% bovine serum albumin. Thereafter, they were incubated with FITC-conjugated RLYE (15 nM) before or after treatment with VEGF (100 ng/ml) for 30 min on ice, fixed in 2% paraformaldehyde, and analyzed by flow cytometry in a fluorescence-activated cell sorter (FACSCalibur, Becton Dickinson, Franklin Lakes, NJ).

[10] = test system: HUVECs; experiment: confocal microscopy of FITC-RLYE binding to HUVECs; parameters: species or system human
Procedure: as §4, with “Confocal microscopy was performed for analyzing binding of RLYE on HUVECs. Scale bar, 10 μm.” left out
For immunocytochemistry, HUVECs were grown to confluence on glass coverslips coated with 2% gelatin and treated with or without VEGF-A (10 ng/ml) for 30 min, followed by incubation with FITC-RLYE (100 ng/ml). […] Images were photographed and analyzed using a confocal fluorescence microscope. Nuclear staining was performed with 4’, 6-diamidino-2-phenylindole (DAPI, 1 ng/ml), and apoptotic cells were detected using a terminal deoxynucleotidyl transferase dUTP nick end labeling (TUNEL) kit (Roche, Korea).

[11] = test system: VEGF-A; conditions: read-out: IC50 for VEGF-A; endothelial cell culture conditions; cited from earlier work
[12] = molecular target: human recombinant VEGF receptor-2 (rhVEGFR-2) (human) (UniProt P35968); experiment: SPR; rhVEGFR-2 immobilised on an activated CM5 chip; RLYE at different concentrations flowed in HBS-EP (10 mM Hepes, 150 mM NaCl, 3 mM EDTA, 0.005% Tween-20) at 25 μl/min, 120 sec injection; Kd from a steady state binding model
human recombinant VEGF receptor-2 (rhVEGFR-2) (human), sequence (P35968 20-764): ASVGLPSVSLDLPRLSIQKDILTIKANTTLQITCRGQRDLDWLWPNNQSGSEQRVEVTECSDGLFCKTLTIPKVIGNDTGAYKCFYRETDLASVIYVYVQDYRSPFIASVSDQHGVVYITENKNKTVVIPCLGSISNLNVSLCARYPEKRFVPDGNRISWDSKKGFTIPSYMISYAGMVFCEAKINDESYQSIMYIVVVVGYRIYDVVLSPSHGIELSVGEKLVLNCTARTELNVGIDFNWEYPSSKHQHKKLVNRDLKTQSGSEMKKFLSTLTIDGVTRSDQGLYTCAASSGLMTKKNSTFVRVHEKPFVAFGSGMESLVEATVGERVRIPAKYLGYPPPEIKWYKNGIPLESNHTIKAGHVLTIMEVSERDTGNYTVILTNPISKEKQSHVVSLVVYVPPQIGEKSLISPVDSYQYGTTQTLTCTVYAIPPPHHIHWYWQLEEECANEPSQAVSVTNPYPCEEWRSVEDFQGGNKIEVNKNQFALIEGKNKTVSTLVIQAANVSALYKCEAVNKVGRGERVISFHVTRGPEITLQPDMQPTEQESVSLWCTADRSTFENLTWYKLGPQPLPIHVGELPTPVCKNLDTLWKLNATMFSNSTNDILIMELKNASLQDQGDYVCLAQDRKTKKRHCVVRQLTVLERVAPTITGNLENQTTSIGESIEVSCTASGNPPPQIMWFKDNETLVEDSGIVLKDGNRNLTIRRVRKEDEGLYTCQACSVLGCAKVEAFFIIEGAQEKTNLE

Molecule: CC(C)C[C@H](NC(=O)[C@@H](N)CCCNC(=N)N)C(=O)N[C@@H](Cc1ccc(O)cc1)C(=O)N[C@@H](CCC(=O)O)C(=O)O [RLYE, Arg-Leu-Tyr-Glu] (H-RLYE-OH)
- cytotoxicity against HUVECs [1]: did not induce any cytotoxicity
- cytotoxic effect on cultured HCT116 cells [2]: no cytotoxic effect
- half-life in blood [3]: 1.2 h
- half-life [4]: > 1080 min

Molecule: Lys-Leu-Tyr-Asp [KLYD, tetrapeptide derived from the kringle 5 of plasminogen]
- inhibitory effect on endothelial cell proliferation [5]: potent inhibitory effect

Molecule: ramucirumab: fully humanized monoclonal antibody bound to the extracellular domain of VEGFR-2
- IC50 [6]: 1 to 2 nM

Molecule: aflibercept: soluble decoy VEGFR-1
- affinity to VEGF-A relative to bevacizumab [7]: several hundred-fold greater

Molecule: CCc1c2c(nc3ccc(OC(=O)N4CCC(N5CCCCC5)CC4)cc13)-c1cc3c(c(=O)n1C2)COC(=O)[C@]3(O)CC [CPT-11, irinotecan]
- tumor growth in mice bearing HCT116 colon tumor [8]: significantly inhibited tumor growth

Molecule: FITC-conjugated RLYE: fluorescein isothiocynate (FITC)-conjugated RLYE, purchased from Peptron (also: FITC conjugated, position not given here)
- binding to the surface of control HUVECs ([9]; 30 min on ice, flow cytometry): bound
- blocking of binding to HUVECs by post-incubation with VEGF-A ([9]; VEGF 100 ng/ml after the peptide): not
- binding to HUVECs after pre-incubation with VEGF-A ([9]; VEGF 100 ng/ml before the peptide): blocked
- binding to the surface of HUVECs (confocal) ([10]; FITC-conjugated RLYE 100 ng/ml): bound
- binding to the surface of HUVECs after pretreatment with VEGF-A (confocal) ([10]; VEGF-A 10 ng/ml 30 min, then FITC-conjugated RLYE 100 ng/ml): effectively blocked

Molecule: bevacizumab: anti-VEGF antibody
- IC50 [11]: 0.15 nM

Molecule: RLYE [Arg-Leu-Tyr-Glu tetrapeptide (RLYE)]
- Kd [12]: 9 µM
